This is an account of results in patent US9458202B2, “Peptidomimetic macrocycles with improved properties” (Aileron Therapeutics, Inc., priority 2008, dated 2016).

Where a SMILES comes first, the peptide text is derived from it. Bridges are numbered along the chain shown (N, C = ends). [ ]: non-standard residue; d: D form. S5 = C=CCCC[C@](C)(N)C(=O)O; Nle = CCCC[C@H](N)C(=O)O

One data set is described as follows: circular dichroism. On the set-up: unit not given here. The conditions noted are these: 20 mM phosphoric acid; pH 2.0; 5 °C; 0.05 mg/mL.
A further data set is described as follows: Figure 2. On the set-up: AUCall: concentration or dose not given beside the values. The settings on record: for C0 / half-life / MRT: Sprague-Dawley, rat, plasma, iv; for MRT: read-out: MRTinf_obs. Here is the method:
Table printed on a drawing sheet, Figure 2
Footnotes: 2 mg/mL iv bolus in Sprague-Dawley rats (10 mg/kg) / * 0.6 mg/mL iv bolus in Sprague-Dawley rats (3 mg/kg)
The patent's description of the figure: FIG. 2 lists the in vivo half-lives of peptidomimetic macrocycles of the invention. Half-lives were measured in Sprague Dawley rats after one intravenous bolus injection at 0.6 mg/mL or 2 mg/mL of each unlabeled peptidomimetic macrocycle at a 3 mg/kg or 10 mg/kg dose, respectively. Three animals were used per compound and concentrations were determined by mass-spectrometric analysis of blood levels (plasma).
First reader's note: An asterisk before the peptide name marks dosing at 3 mg/kg (0.6 mg/mL) instead of 10 mg/kg (2 mg/mL).

What is called half-life is how long it takes for the measured level to halve. With `CCCC[C@H](NC(=O)[C@@]1(C)CCCC=CCCCC2(CCCC=CCCC[C@](C)(NC(=O)[C@H](C)NC(=O)[C@@H](NC(=O)[C@H](CC(N)=O)NC(=O)[C@H](CCCNC(=N)N)NC(=O)[C@@H](NC(=O)[C@@H](NC(=O)[C@H](CC(=O)O)NC(C)=O)[C@@H](C)CC)[C@@H](C)CC)[C@@H](C)CC)C(=O)N[C@@H](Cc3c[nH]cn3)C(=O)N[C@@H](CC(C)C)C(=O)N[C@@H](C)C(=O)N2)C(=O)N[C@@H](C(C)C)C(=O)NCC(=O)N[C@@H](CC(=O)O)C(=O)N1)C(=O)N[C@@H](CC(=O)O)C(=O)N[C@@H](CCCNC(=N)N)C(=O)N[C@@H](CO)C(=O)N[C@H](C(N)=O)[C@@H](C)CC` (stereo partly shown) [*SP14], in the data set “circular dichroism”, the helicity is -5840. Further, in “Figure 2”, the “AUCall” value turned out to be 74344 ng·h/mL, the “Cl_obs” value stood at 0.727 mL/min/kg, the C0 is 7200 ng/mL and the half-life was 6.7 h. The MRT in “Figure 2” was 8.7 h.

In turn, `CCCC[C@H](NC(=O)[C@]1(C)CCCC=CCCC[C@](C)(NC(=O)[C@H](C)NC(=O)[C@H](CC(C)C)NC(=O)[C@H](Cc2c[nH]cn2)NC(=O)[C@H](CCCNC(=N)N)NC(=O)[C@H](C)NC(=O)[C@@H](NC(=O)[C@H](CC(N)=O)NC(=O)[C@H](CCCNC(=N)N)NC(=O)[C@@H](NC(=O)[C@@H](NC(=O)[C@H](CC(=O)O)NC(C)=O)[C@@H](C)CC)[C@@H](C)CC)[C@@H](C)CC)C(=O)N[C@@H](C(C)C)C(=O)NCC(=O)N[C@@H](CC(=O)O)C(=O)N1)C(=O)N[C@@H](CC(=O)O)C(=O)N[C@@H](CCCNC(=N)N)C(=O)N[C@@H](CO)C(=O)N[C@H](C(N)=O)[C@@H](C)CC` [SP1] (Ac-DIIRNIARHLA[S5]VGD[S5][Nle]DRSI-NH2; staple 12-16) displayed a helicity in “circular dichroism” of -8150. In the data set “Figure 2”, the “AUCall” value worked out at 268275 ng·h/mL, the “Cl_obs” value is 0.737 mL/min/kg and the C0 came out at 154000 ng/mL.

In the data set “circular dichroism”, `CCCC[C@H](NC(=O)[C@]1(C)CCCC=CCCCC2(CCCC=CCCC[C@@](C)(NC(=O)[C@H](C)NC(=O)[C@@H](NC(=O)[C@H](CC(N)=O)NC(=O)[C@H](CCCNC(=N)N)NC(=O)[C@@H](NC(=O)[C@@H](NC(=O)[C@H](CC(=O)O)NC(C)=O)[C@@H](C)CC)[C@@H](C)CC)[C@@H](C)CC)C(=O)N[C@@H](Cc3c[nH]cn3)C(=O)N[C@@H](CC(C)C)C(=O)N[C@@H](C)C(=O)N2)C(=O)N[C@@H](C(C)C)C(=O)NCC(=O)N[C@@H](CC(=O)O)C(=O)N1)C(=O)N[C@@H](CC(=O)O)C(=O)N[C@@H](CCCNC(=N)N)C(=O)N[C@@H](CO)C(=O)N[C@H](C(N)=O)[C@@H](C)CC` (stereo partly shown) [*SP13] returned a helicity of -5450. In “Figure 2”, the “AUCall” value is 82965 ng·h/mL, the “Cl_obs” value stood at 0.44 mL/min/kg, the C0 was determined as 6100 ng/mL and the half-life is 9.5 h. Further, the MRT in “Figure 2” turned out to be 13.2 h.

Molecule `CC[C@H](C)[C@H](NC(C)=O)C(=O)N[C@@H](Cc1c[nH]c2ccccc12)C(=O)N[C@H](C(=O)N[C@@H](C)C(=O)N[C@@H](CCC(N)=O)C(=O)N[C@@H](C)C(=O)N[C@@H](CC(C)C)C(=O)N[C@@H](CCCNC(=N)N)C(=O)N[C@@]1(C)CCCC=CCCC[C@@](C)(C(=O)N[C@@H](Cc2ccccc2)C(=O)N[C@@H](CC(N)=O)C(=O)N[C@@H](C)C(=O)N[C@@H](Cc2ccc(O)cc2)C(=O)N[C@@H](Cc2ccc(O)cc2)C(=O)N[C@@H](C)C(=O)N[C@@H](CCCNC(=N)N)C(=O)N[C@@H](CCCNC(=N)N)C(N)=O)NC(=O)[C@H](CC(=O)O)NC(=O)CNC(=O)[C@H]([C@@H](C)CC)NC1=O)[C@@H](C)CC` [SP9] yielded a helicity in the data set “circular dichroism” of -14900. Further, in “Figure 2”, the “AUCall” value was found to be 124448 ng·h/mL, the “Cl_obs” value turned out to be 0.83 mL/min/kg, the C0 is 159000 ng/mL and the half-life is 7.3 h. Further, in “Figure 2”, the MRT was 4.5 h.

With `CC[C@H](C)[C@H](NC(C)=O)C(=O)N[C@@H](Cc1c[nH]c2ccccc12)C(=O)N[C@H](C(=O)N[C@@H](C)C(=O)N[C@@]1(C)CCCC=CCCCC2(CCCC=CCCCCCC[C@@](C)(C(=O)N[C@@H](Cc3ccc(O)cc3)C(=O)N[C@@H](Cc3ccc(O)cc3)C(=O)N[C@@H](C)C(=O)N[C@@H](CCCNC(=N)N)C(=O)N[C@@H](CCCNC(=N)N)C(N)=O)NC(=O)[C@H](CC(N)=O)NC(=O)[C@H](Cc3ccccc3)NC(=O)[C@H](CCC(=O)O)NC(=O)[C@H](CC(=O)O)NC(=O)CNC(=O)[C@H]([C@@H](C)CC)NC2=O)NC(=O)[C@H](CCCNC(=N)N)NC(=O)[C@H](CC(C)C)NC(=O)[C@H](C)NC1=O)[C@@H](C)CC` (stereo partly shown) [*SP21], the helicity in the data set “circular dichroism” was -11200. For the same molecule, in “Figure 2”, the “AUCall” value was found to be 7000 ng·h/mL, the “Cl_obs” value worked out at 6.977 mL/min/kg, the C0 is 1450 ng/mL and the half-life was 5.7 h. Moreover, the MRT in the data set “Figure 2” was found to be 6.6 h.

The molecule `CC(=O)N[C@@H](CCC(N)=O)C(=O)N[C@@H](CO)C(=O)N[C@@]1(C)CCCC=CCCCC2(CCCC=CCCCCCC[C@@](C)(C(=O)N[C@@H](CCC(N)=O)C(=O)N[C@@H](CC(N)=O)C(N)=O)NC(=O)[C@H](CC(C)C)NC(=O)[C@H](CC(C)C)NC(=O)[C@H](CCCNC(=N)N)NC(=O)[C@H](Cc3c[nH]c4ccccc34)NC(=O)[C@H](CC(C)C)NC(=O)[C@H](CC(N)=O)NC2=O)NC(=O)[C@H](Cc2ccccc2)NC(=O)[C@H]([C@@H](C)O)NC(=O)[C@H](CCC(N)=O)NC1=O` (stereo partly shown) [*SP17] showed a helicity in the data set “circular dichroism” of -12300. Moreover, in “Figure 2”, the “AUCall” value amounted to 102958 ng·h/mL, the “Cl_obs” value was 0.995 mL/min/kg, the C0 turned out to be 72800 ng/mL and the half-life is 3.3 h. In addition, in “Figure 2”, the MRT was 3 h.
